{"source": "patent US6867305B2", "about": "“Synthesis of epothilones, intermediates thereto and analogues thereof” (Sloan-Kettering Institute for Cancer Research, priority 1996, dated 2005)", "key": {"tubulin": {"test_system": "tubulin", "experiment": "Tubulin-binding / tubulin polymerization assay", "type": "biochemical"}, "[1]": {"experiment": "Stability in plasma in vitro (HPLC)", "type": "in vitro ADME, dog", "conditions": "5 μg/mL, 37 degree", "procedure": "(§1) Stability of dEpoF in animal plasmas. A HPLC method is set up using a NovaPak C 18, 3.9×300 mm column with a mobile phase of 50% acetonitrile in 50 mM potassium dihydrogen phosphate with 0.01% triethylamine at a flow rate of 0.8 ml/min. dEpoF is monitored at a wavelength of 260 nm and has a retention time of about 10 min. The plasma stability is performed with mouse plasma and dog plasma purchased from Pel-Freeze and human plasma from the blood center in MSKCC. A small amount of dEpoF was dissolved in 50% methanol/water at a concentration of 500 μg/mL. An aliquot of 20 μL is then spiked to 2 mL of plasma to a final plasma concentration of 5 μg/mL. The plasma samples were kept at 37 degree. At the time point, 200 μL of the plasma was removed and added to 400 μL of methanol to precipitate the plasma protein. Twenty μL of the supernatant was analyzed by HPLC without further modification. dEpoF disappears rapidly with half life about one hour in the commercial frozen mouse plasma alone, but stable in dog and human plasma."}, "[2]": {"experiment": "Stability in plasma in vitro (HPLC)", "type": "in vitro ADME, human", "procedure": "(FIG. 44). […] (FIG. 44).\n(§2) Human blood plasma or nude mice plasma (300 μl) containing dEpoB (0.05-20 μg/ml) was added 30 μl of methanol and mixed for 2 min and then added 300 μl of methanol. The centrifuge supernatant was used for high performance liquid chromatography (HPLC). Nova-pak C18 column (15 cm) was used, with 50% acetonitrile/water with 0.8% triethylamine and 0.2% phosphoric acid as mobile phase. UV absorbance at 250 nm was measured.\nas §1, with “At the time point, 200 μL of the plasma was removed and added to 400 μL of methanol to precipitate the plasma protein.” left out"}, "[3]": {"test_system": "UL3-C ovary adenocarcinoma xenograft", "experiment": "Human tumor xenograft in nude mice", "type": "in vivo", "summary_of_the_method": "(§3)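 Male athymic nu/nu mice bearing s.c. flank tumours from 5×10^6 cells or 30-50 mg tissue; dosing began at 35-200 mm^3 as 6 hr tail-vein i.v. infusion every other day ×5 unless otherwise indicated. Caliper tumour volume, body weight and lethality recorded every other day; 3-5 mice per group.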"}, "[4]": {"test_system": "MCF-7/Adr mammary xenograft", "experiment": "Human tumor xenograft in nude mice", "type": "in vivo"}, "[5]": {"test_system": "SK-OV-3 ovary adenocarcinoma xenograft", "experiment": "Human tumor xenograft in nude mice", "type": "in vivo", "summary_of_the_method": "as §3"}, "[6]": {"experiment": "Pharmacokinetics in beagle dogs", "type": "in vivo", "conditions": "male, dog, plasma, intravenous, 6 mg/kg, 10-min i.v. infusion", "procedure": "(§4) dEpoB at doses of 2, 6, 12 and 20 mg/kg, were given to male beagle dogs (11.2-14 kg) via i.v. infusion. The infusion volume was 1 ml/kg for 10 min using the Harvard PHD2000 pump (Harvard Apparatus). dEpoB was formulated in Cremophor 3%, ethanol 3%, propyleneglycol 40% and 5% glucose 54%. The animal was pretreated at −30 min with Benadryl 5 mg/kg, i.v.; cimetidine 5 mg/kg i.m.; and dexamethasone 1 mg/kg, i.e. to minimize allergic reactions due to Cremophor administration.\nPharmacokinetic studies were also carried out for of dEpoB in beagle dogs at 6 mg/kg (120 mg/m^2 body surface), with 10-min i.v. infusion. Serial blood samples were collected in 5 ml heparinized tubes intermittently from-15 min to 24 hours. Plasma concentrations of dEpoB were determined by HPLC as described in methods.\nas §2"}, "[7]": {"test_system": "Human lung carcinoma A549 cells", "conditions": "A549 cells exposed to IC50-IC90: VBL 14.3 months, paclitaxel and adriamycin 21.3 months, dEpoB 21.4 months", "from_the_text": "Repeated exposure of human lung carcinoma A549 cells to sublethal concentrations of antitumor agents may lead to the development of drug resistance.\nEvery several weeks, cells were harvested for the dose-effect analysis to determine their folds of resistance (using SRB protein staining assay) based on comparing the IC50 value with the IC50 value of the untreated parent cells. Trypsinized/washed cells were used for propagating the cell lineage."}, "B16 Melanoma": {"test_system": "B16 Melanoma", "type": "in vivo, murine", "conditions": "mouse, in vivo"}, "[8]": {"experiment": "Toxicity in beagle dogs, 10-min i.v. infusion", "type": "in vivo, beagle dog", "procedure": "as §4\nAt 12 mg/kg. […] The body-weight slowly recovered in 2-3 weeks. […] There was a gross abnormality (reddish discoloration) of the intestinal mucosa from duodenum to the ileum. The small intestines contained blood tinged mucinous materials. […] Necrosis of intestinal mucosal epithelium with crypt cells most severely affected at this lethal dose."}, "[9]": {"conditions": "dEpoB 30 mg/kg, Taxol 20 mg/kg, Q2Dx5, 6-hr i.v. infusion"}, "[10]": {"conditions": "dEpoB 30 mg/kg, Taxol 24 mg/kg, Q2Dx5, 6-hr i.v. infusion"}, "[11]": {"conditions": "SK-OV-3, dEpoB 30 mg/kg, Taxol 15 mg/kg, Q2Dx6, 6-hr i.v. infusion"}}, "note": "Where “and” joins values, the source holds several entries; their conditions need not be identical. Equal values may be shown once. Read-outs that look alike come from different tables or passages of the source."}
{"smiles": "C/C1=C/C[C@@H](/C(C)=C/c2csc(CO)n2)OC(=O)C[C@H](O)C(C)(C)C(=O)[C@H](C)[C@@H](O)[C@@H](C)CCC1", "note": "[dEpoF, 12,13-Desoxyepothilone F]", "values": [{"measurement": "tubulin-binding activity retained relative to dEpoB", "setting": "tubulin", "result": 90, "unit": "%"}, {"measurement": "stability in dog plasma", "setting": "[1]", "result": "stable"}, {"measurement": "stability in human plasma", "setting": "[2]; 5 μg/mL, 37 degree", "result": "stable"}]}
{"smiles": "CC(=O)O[C@H]1C(=O)[C@@]2(C)[C@H]([C@H](OC(=O)c3ccccc3)[C@]3(O)C[C@H](OC(=O)[C@H](O)[C@@H](NC(=O)c4ccccc4)c4ccccc4)C(C)=C1C3(C)C)[C@]1(OC(C)=O)CO[C@@H]1C[C@@H]2O", "note": "[Taxol, paclitaxel, reference compound]", "values": [{"measurement": "Tumor Disappearance", "setting": "[3]; [9]", "result": "0/3"}, {"measurement": "Tumor Disappearance", "setting": "[4]; [10]", "result": "0/4"}]}
{"smiles": "C/C1=C/C[C@@H](/C(C)=C/c2csc(C)n2)OC(=O)C[C@H](O)C(C)(C)C(=O)[C@H](C)[C@@H](O)[C@@H](C)CCC1", "note": "[dEpoB, 12,13-desoxyepothilone B]", "values": [{"measurement": "Therapeutic Effect Rank Order", "setting": "[5]; SK-OV-3, i.v. infusion", "result": "Taxol>>dEpoB"}, {"measurement": "Therapeutic Effect Rank Order", "setting": "[5]; SK-OV-3, i.v. or i.p., ref 19 (Table 6)", "result": "dEpoB≈Taxol"}, {"measurement": "Therapeutic Effects dEpoB vs Taxol", "setting": "[5]; SK-OV-3, dEpoB 30 mg/kg, Taxol 15 mg/kg, Q2Dx6", "result": "<<"}, {"measurement": "Lowest Average Tumor Size (T/C)", "setting": "[5]; [11]", "result": 0.17}, {"measurement": "Tumor Disappearance", "setting": "[5]; [11]", "result": "0/3"}, {"measurement": "Lowest Average Tumor Size (T/C)", "setting": "[3]; [9]", "result": 0.03}, {"measurement": "Tumor Disappearance", "setting": "[3]; [9]", "result": "0/3"}, {"measurement": "Therapeutic Effect Rank Order", "setting": "[3]; i.v. infusion", "result": "dEpoB≧ Taxol"}, {"measurement": "concentration at 24 hr", "setting": "[6]; read-out: plasma concentration at the end of 24-hr collection", "result": "45 ng/mL and 92 nM"}, {"measurement": "half-life", "setting": "[6]; read-out: α-phase t1/2 (converted)", "result": 114, "unit": "min"}, {"measurement": "half-life", "setting": "[6]; read-out: β-phase t1/2 (converted)", "result": 1260, "unit": "min"}, {"measurement": "fold resistance developed to the drug after repeated exposure", "setting": "[7]", "result": 21, "unit": "fold"}, {"measurement": "Therapeutic Effect Rank Order", "setting": "B16 Melanoma", "result": "dEpoB>Taxol>>EpoB"}, {"measurement": "Lowest Average Tumor Size (T/C)", "setting": "[4]; [10]", "result": 0.11}, {"measurement": "Tumor Disappearance", "setting": "[4]; [10]", "result": "0/3"}, {"measurement": "Therapeutic Effect Rank Order", "setting": "[4]; i.p., ref 19 (Table 5)", "result": "dEpoB>Camptothecin>Adriamycin>Taxol"}, {"measurement": "Therapeutic Effect Rank Order", "setting": "[4]; i.v. infusion", "result": "dEpoB>>VP-16, Taxol>VBL, Adriamycin"}, {"measurement": "period of stability in human plasma in vitro", "setting": "[2]; human plasma, HPLC", "result": "over 3 hrs"}, {"measurement": "clinical signs", "setting": "[8]; 12 mg/kg", "result": "moderate diarrhea (without blood)"}, {"measurement": "decrease in white blood cell (WBC) counts", "setting": "[8]; 12 mg/kg", "result": 13, "unit": "%"}, {"measurement": "drop in body-weight on day 3", "setting": "[8]; 12 mg/kg", "result": 1.3, "unit": "kg"}, {"measurement": "histopathology of 28 organs or tissues", "setting": "[8]; 12 mg/kg", "result": "No significant histopathologic lesions"}, {"measurement": "platelet counts, ALT, AST", "setting": "[8]; 12 mg/kg", "result": "No significant changes"}, {"measurement": "WBC on day 3", "setting": "[8]; 20 mg/kg", "result": 0.6, "unit": "k/μl"}, {"measurement": "body-weight loss on day 2", "setting": "[8]; 20 mg/kg", "result": 0.9, "unit": "kg"}, {"measurement": "body-weight loss on day 3", "setting": "[8]; 20 mg/kg", "result": 3.6, "unit": "kg"}, {"measurement": "increase in ALT and AST by day 4", "setting": "[8]; 20 mg/kg", "result": "3-6 fold"}, {"measurement": "lethality", "setting": "[8]; 20 mg/kg", "result": "expired on day 4"}, {"measurement": "clinical signs on day 2", "setting": "[8]; 20 mg/kg i.v.", "result": "severe bloody diarrhea and dehydration"}, {"measurement": "toxicity", "setting": "[8]; 2 or 6 mg/kg (40 and 120 mg/m^2)", "result": "No significant toxicity"}]}
